Data reported in the supplement of paper PMC7840683.
Where a name gives a salt, the structure may show the parent alone. ± gives the standard deviation of the averaged measurements.

System: HepaRG
Experiment: LDH release cytotoxicity, % of total lysis control; higher = more cytotoxic
Conditions: 48 h
In short: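 Single-lot HepaRG cells in collagen I-coated 96-well plates were treated for 48 h in serum-free induction medium containing 0.5% DMSO with test chemicals in eight-point half-log series up to 100 µM. For total lysis, wells received 0.1% Triton X. LDH in 50 µL spent medium was assayed by resorufin fluorescence with CytoTox-ONE. Percent cytotoxicity was normalized to the on-plate vehicle and total lysis controls, with duplicates averaged.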

S=C([S-])NCCNC(=S)[S-].S=C([S-])NCCNC(=S)[S-].[Mn+2].[Zn+2] [Mancozeb]
Conditions | LDH release cytotoxicity [%]
0.01581 µM | -1.38 ± 0.48
0.05 µM | -1.29 ± 0.95
0.1581139 µM | -2.2 ± 0.12
0.5 µM | -0.828 ± 0.04
1.5811388 µM | 30.3 ± 1.4
5 µM | 68.2 ± 0.83
15.8114 µM | 72.55 ± 0.27
50 µM | 77.11 ± 0.33

COC(=O)N(C(=O)N1COC2(C(=O)OC)Cc3cc(Cl)ccc3C2=N1)c1ccc(OC(F)(F)F)cc1 (configuration not stated) [Indoxacarb]
Conditions | LDH release cytotoxicity [%]
0.0253 µM | -0.813 ± 0.062
0.08 µM | 0.513 ± 0.93
0.252982 µM | -1.47 ± 0.66
0.8 µM | -0.957 ± 0.72
2.52982 µM | -0.16 ± 1.7
8 µM | -0.511 ± 0.2
25.2982 µM | 0.453 ± 1.4
80 µM | 14.2 ± 2.2

O=C(N[C@H](c1ccccc1)[C@@H]1CN2CCC1CC2)c1c(Cl)ccc(C(F)(F)F)c1Cl
Conditions | LDH release cytotoxicity [%]
0.0292511 µM | -0.907 ± 0.47
0.0925 µM | -0.886 ± 1.1
0.292511 µM | -1.02 ± 1.4
0.925 µM | -1.22 ± 0.28
2.9251068 µM | -0.0305 ± 0.38
9.25 µM | 1.38 ± 1.5
29.251068 µM | 16.1 ± 3
92.5 µM | 82.5 ± 6

O=C(O)c1ccc([N+](=O)[O-])cc1 [4-Nitrobenzoic acid]
Conditions | LDH release cytotoxicity [%]
0.03162 µM | -2.11 ± 0.46
0.1 µM | -1.22 ± 0.03
0.3162278 µM | -0.728 ± 0.58
1 µM | -0.721 ± 1.3
3.16228 µM | -1.62 ± 0.43
10 µM | -0.906 ± 0.7
31.6228 µM | -0.392 ± 0.1
100 µM | 1.32 ± 1.1

Cc1ccc(Cl)cc1 [4-Chlorotoluene]
Conditions | LDH release cytotoxicity [%]
0.031623 µM | -0.192 ± 0.14
0.1 µM | -1.27 ± 2.3
0.316228 µM | -1.26 ± 0.55
1 µM | -2.78 ± 0.39
3.16228 µM | -2.43 ± 0.42
10 µM | -1.55 ± 1.5
31.6228 µM | -1.15 ± 0.57
100 µM | 1.18 ± 0.3

C1=CCCC=CCCC=CCC1 [1,5,9-Cyclododecatriene]
Conditions | LDH release cytotoxicity [%]
0.032888 µM | 0.325 ± 0.27
0.104 µM | -1.08 ± 0.16
0.328877 µM | -2.13 ± 1.5
1.04 µM | -1.59 ± 0.41
3.28877 µM | -1.09 ± 0.33
10.4 µM | -1.273 ± 0.012
32.8877 µM | -1.4 ± 0.08
104 µM | 0.633 ± 0.4

Nc1ccc2c(c1)C(=O)c1ccccc1C2=O [2-Aminoanthraquinone]
Conditions | LDH release cytotoxicity [%]
0.03162 µM | -1.78 ± 0.3
0.1 µM | -1.65 ± 0.022
0.3162278 µM | -1.65 ± 0.11
1 µM | -1.44 ± 0.32
3.16228 µM | -1.62 ± 0.56
10 µM | -1.05 ± 0.29
31.6228 µM | -1.21 ± 0.022
100 µM | -0.125 ± 0.23

CN/C(=N\[N+](=O)[O-])NCc1cnc(Cl)s1 [Clothianidin]
Conditions | LDH release cytotoxicity [%]
0.03162 µM | -0.975 ± 0.7
0.1 µM | -0.34 ± 0.13
0.3162278 µM | -1.12 ± 0.038
1 µM | -0.952 ± 0.36
3.16228 µM | -0.743 ± 0.035
10 µM | -0.23 ± 0.17
31.6228 µM | -0.557 ± 0.27
100 µM | 0.586 ± 0.26

COCC(C)O (configuration not stated) [1-Methoxy-2-propanol]
Conditions | LDH release cytotoxicity [%]
0.03162 µM | -0.68 ± 0.076
0.1 µM | -1.18 ± 1.1
0.3162278 µM | -1.53 ± 0.67
1 µM | -1.81 ± 0.6
3.16228 µM | -1.09 ± 0.06
10 µM | -0.197 ± 0.52
31.6228 µM | -0.477 ± 0.073
100 µM | 0.469 ± 0.036

CN=C=S [Methyl isothiocyanate]
Conditions | LDH release cytotoxicity [%]
0.031623 µM | -2.69 ± 0.49
0.1 µM | -1.72 ± 1
0.316228 µM | -3.56 ± 1.4
1 µM | -4.608 ± 0.021
3.16228 µM | -3.71 ± 0.42
10 µM | -2.9 ± 0.8
31.6228 µM | 0.153 ± 0.77
100 µM | 49.2 ± 6.8

Fc1ccc(Oc2ccnc3cc(Cl)cc(Cl)c23)cc1 [Quinoxyfen]
Conditions | LDH release cytotoxicity [%]
0.03162 µM | -0.928 ± 1.3
0.1 µM | -1.42 ± 1.2
0.3162278 µM | -1.39 ± 0.3
1 µM | -0.911 ± 0.14
3.16228 µM | -1.44 ± 0.34
10 µM | -0.367 ± 0.57
31.6228 µM | -0.837 ± 0.58
100 µM | 3.32 ± 2.2

CN(C)CCCN1c2ccccc2Sc2ccc(Cl)cc21 [Chlorpromazine hydrochloride]
Conditions | LDH release cytotoxicity [%]
0.031623 µM | -1.42 ± 0.91
0.1 µM | -1.97 ± 1.4
0.316228 µM | -1.98 ± 0.49
1 µM | -2.9 ± 0.0051
3.16228 µM | -1.62 ± 1.7
10 µM | -1.31 ± 0.15
31.6228 µM | 10.7 ± 2
100 µM | 77.6 ± 2.4

OCCC(F)(F)C(F)(F)C(F)(F)C(F)(F)C(F)(F)C(F)(F)F [6:2 Fluorotelomer alcohol]
Conditions | LDH release cytotoxicity [%]
0.03162 µM | -0.419 ± 0.26
0.1 µM | -1.392 ± 0.012
0.3162278 µM | -1.67 ± 0.41
1 µM | -2.28 ± 0.32
3.16228 µM | -1.52 ± 0.59
10 µM | -1.12 ± 1.1
31.6228 µM | -1.141 ± 0.005
100 µM | -0.148 ± 0.73

CC1CN(N=Cc2cccnc2)C(=O)N=N1 (configuration not stated) [Pymetrozine]
Conditions | LDH release cytotoxicity [%]
0.03162 µM | 4.48 ± 0.29
0.1 µM | 4.64 ± 1.1
0.3162278 µM | 4.33 ± 1.2
1 µM | 3.28 ± 0.56
3.16228 µM | 5.3 ± 1.3
10 µM | 4.29 ± 1.6
31.6228 µM | 6.57 ± 0.73
100 µM | 9.47 ± 2.1
